Reference: patent US10689429B2, “Double-acylated GLP-1 compounds” (Novo Nordisk A/S, priority 2014, dated 2020)
Like-named read-outs stand apart in the source and are kept apart here. *1 amine or outer side, *2 acyl side, *3 side chain or, on linkers, in order; H or OH if unused. Where a SMILES comes first, the peptide text is derived from it. Where no end group is shown, it is not given here. Side-chain parts run from the residue outwards. [ ]: non-standard residue; d: D form. The star is where a group is joined. Undecanoyl(11-OPh(4-COOH)) = O=C(O)c1ccc(OCCCCCCCCCCC(=O)*)cc1; Decanoyl(10-O(3-COOH-Ph)) = O=C(O)c1cccc(OCCCCCCCCCC(=O)*)c1; γGlu = O=C(O)[C@H](CCC(=O)[*:2])N[*:1]; C14 diacid = O=C(O)CCCCCCCCCCCCC(=O)*; AEEA = NCCOCCOCC(=O)O; Aib = CC(C)(N)C(=O)O

Legend:
[1] = molecular target: T1, human GLP-1 receptor (Homo sapiens, UniProt P43220); assay: In vitro potency, CRE luciferase reporter gene assay in BHK cells expressing the human GLP-1 receptor; type: cell-based; details: average of duplicates;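 note: firefly luciferase luminescence read after 3 h incubation at 37 °C, compounds tested in an eight-point series from 0.01 pM to 100 nM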
T1 construct: expressed in transfected cells; host or cells: membranes from BHK cells, parent line BHKTS13, clone FCW467-12A
Target sequence in this assay (P43220 24-463): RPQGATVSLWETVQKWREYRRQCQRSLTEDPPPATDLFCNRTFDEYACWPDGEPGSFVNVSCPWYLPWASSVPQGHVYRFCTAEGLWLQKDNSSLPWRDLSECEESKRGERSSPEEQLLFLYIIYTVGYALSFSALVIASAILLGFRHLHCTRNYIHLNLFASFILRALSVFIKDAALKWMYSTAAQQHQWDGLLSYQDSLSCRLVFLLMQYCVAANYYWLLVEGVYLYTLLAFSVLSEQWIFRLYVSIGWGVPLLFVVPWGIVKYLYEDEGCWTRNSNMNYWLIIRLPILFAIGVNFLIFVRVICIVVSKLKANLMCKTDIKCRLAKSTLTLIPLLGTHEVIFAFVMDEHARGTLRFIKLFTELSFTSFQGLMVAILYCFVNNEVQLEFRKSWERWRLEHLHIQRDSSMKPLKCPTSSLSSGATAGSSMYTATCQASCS
Description: The in vitro potency is the measure of human GLP-1 receptor activation in a whole cell assay.
In vitro potency was determined by measuring the response of the human GLP-1 receptor in a reporter gene assay. The assay was performed in a stably transfected BHK cell line that expresses the human GLP-1 receptor and contains the DNA for the cAMP response element (CRE) coupled to a promoter and the gene for firefly luciferase (CRE luciferase). When the human GLP-1 receptor is activated it results in the production of cAMP, which in turn results in the luciferase protein being expressed. When assay incubation is completed the luciferase substrate (luciferin) is added and the enzyme converts luciferin to oxyluciferin to produce bioluminescence. The luminescence is measured as the readout for the assay.
An increase of the in vitro potency, EC50 value, in the presence of serum albumin would indicate an affinity to serum albumin and represents a method to predict a protracted pharmacokinetic profile of the test substance in animal models.
The cells were cultured at 5% CO2 in Cell Culture Medium. They were aliquoted and stored in liquid nitrogen. Before each assay an aliquot is taken up and washed twice in PBS before being suspended at the desired concentration in the assay specific buffer. For 96-well plates the suspension was made to give a final concentration of 5×10^3 cells/well.
Assay Medium consisted of DMEM w/o phenol red, 10 mM Hepes and 1× Glutamax. The 1% Assay Buffer consisted of 2% ovalbumin, 0.2% Pluronic F-68 and 2% HSA in Assay Medium. The 0% Assay Buffer consisted of 2% ovalbumin and 0.2% Pluronic F-68 in Assay Medium.
1) Cell stocks were thawed in a 37° C. water bath.
2) Cells were washed three times in PBS.
3) The cells were counted and adjusted to 5×10^3 cells/50 μl (1×10^5 cells/ml) in Assay Medium. A 50 μl aliquot of cells was transferred to each well in the assay plate.
4) Stocks of the test compounds and reference compounds were diluted to a concentration of 0.2 pM in 0% Assay Buffer for the 0% HSA CRE luciferase assay and 1% Assay Buffer for the 1% HSA CRE luciferase assay. […] Compounds were tested at the following final concentrations: 1×10^−7 M, 1×10^−8 M; 1×10^−9 M, 1×10^−10 M, 1×10^−11 M, 1×10^−12 M, 1×10^−13 M, and 1×10^−14 M. 6) The assay plate was incubated for 3 h in a 5% CO2 incubator at 37° C. […] 8) A 100 μl aliquot of steadylite plus reagent was added to each well of the assay plate (reagent was light sensitive). 9) Each assay plate was covered with aluminum foil to protect it from light and shaken for 30 min at room temperature. 10) Each assay plate was read in a Packard TopCount NXT instrument. Calculations and Results
The data from the TopCount instrument were transferred to GraphPad Prism software. The software performs a non-linear regression (log(agonist) vs response).
A minimum of two replicates was measured for each sample on separate assay plates. The reported values are averages of the duplicates. For some examples more than one assay was run and in this case the data reported are the averages of the averaged duplicates.

[2] = Pharmacokinetic study in mini pigs after i.v. administration; type: in vivo; details: female, Göttingen, pig, plasma, iv, 2 nmol/kg; read-out: Minipig iv PK, t½ (converted)
Description: The purpose of this study is to determine the protraction in vivo of the GLP-1 derivatives after i.v. administration to mini pigs, i.e. the prolongation of their time in the body and thereby their time of action. This was done in pharmacokinetic (PK) studies, where the terminal half-life of the derivative in question was determined. By terminal half-life is generally meant the period of time it takes to halve a certain plasma concentration, measured after the initial distribution phase.
Female Göttingen mini pigs obtained from Ellegaard Göttingen Minipigs (Dalmose, Denmark) at approximately 5 months of age and weighing approximately 10 kg were used in the studies. The mini pigs were housed in pens with straw as bedding, four to six together in each pen and fed restrictedly once or twice daily with Altromin 9023 mini pig diet (Chr. Petersen A/S, DK-4100 Ringsted). The pigs were used for repeated pharmacokinetic studies with a suitable wash-out period between successive GLP-1 derivative dosings. An acclimatisation period of 1 week was allowed during which time the mini pigs were trained to be fixated on the back for blood sampling and in slings for i.v. dosing. All handling, dosing and blood sampling of the animals was performed by trained and skilled staff.
The GLP-1 derivatives were dissolved in 50 mM sodium phosphate, 70 mM sodium chloride, 0.05% tween 80, pH 7.4 to a concentration of approximately 20 nmol/ml. Intravenous injections (the volume corresponding to usually 2 nmol/kg, for example 0.1 ml/kg) of the compounds were given as intravenous injections via a Venflon inserted in an ear vein, while the animals were placed un-anaesthetised in a sling. The dose volume was 0.1 ml/kg, and blood was sampled at predefined time points for up till 13 days post dosing (samples were taken with a syringe from a jugular vein). Blood samples (for example 0.8 ml) were collected in EDTA buffer (8 mM) and then centrifuged at 4° C. and 2000 G for 10 minutes.
Individual plasma concentration-time profiles were analysed by a non-compartmental model in WinNonlin v. […] 6.2 or 6.3 (Pharsight Inc., Mountain View, Calif., USA), or other relevant software for PK analysis, and the resulting terminal half-lives determined.

[3] = molecular target: T1, human GLP-1 receptor; assay: GLP-1 receptor binding, competitive 125I-GLP-1 SPA binding assay on isolated membranes; details: low HSA (max. 0.001% final assay concentration)
[4] = molecular target: T2, human GLP-1 receptor (human, UniProt P43220)
Target sequence in this assay (P43220 24-463): as above

[5] = molecular target: T2, human GLP-1 receptor; assay: displacement of [125I]-GLP-1-(7-36)NH2 from membranes with human GLP-1 receptor, SPA, high HSA (2.0%)
Description: (§1) Each derivative is added in a series of concentrations to isolated membranes containing the human GLP-1 receptor and displacement of the labelled ligand is monitored. The receptor binding is reported as the concentration at which half of the labelled ligand is displaced from the receptor, the $IC50$ value.
(§2) For the receptor binding assay in the presence of low HSA (0.001%) 50 μl of the assay buffer was added to each well of an assay plate. […] For the receptor binding assay in the presence of high HSA (2.0%) 50 μl of the 8% albumin stock was added to each well of an assay plate. […] Cell membrane aliquots were thawed and diluted to their working concentration. Fifty μl were added to each well in the assay plate. […] WGA SPA beads were suspended in assay buffer at 20 mg/ml. The suspension was diluted to 10 mg/ml in assay buffer just prior to addition to the assay plate. Fifty μl were added to each well in the assay plate. […] A 25 μl aliquot was reserved for measuring total counts/well. […] The assay plate was incubated for 2 h at 30° C. […] The assay plate was centrifuged for 10 min. […] The assay plate was read in a Packard TopCount NXT instrument.

[6] = molecular target: T2, human GLP-1 receptor; assay: displacement of [125I]-GLP-1-(7-36)NH2 from membranes with human GLP-1 receptor, SPA, low HSA (0.001%)
Description: as §1, §2

[7] = EC50/pM (1% HSA), 1% HSA final assay concentration
[8] = 0% HSA, read-out: EC50/pM (0% HSA)

Molecule	EC50 ([1]; EC50/pM (0% HSA), 0% HSA)	EC50 [1, 7]	half-life [2]	IC50 ([3]; IC50/nM (low HSA))	EC50 [1, 8]	IC50 ([3]; read-out: IC50/nM (low HSA))	EC50/pM (0% HSA) [4]	EC50/pM (1% HSA) [4]	IC50 [5]	IC50 [6]
CC[C@H](C)[C@H](NC(=O)[C@H](Cc1ccccc1)NC(=O)[C@H](CCC(=O)O)NC(=O)[C@H](CCCNC(=N)N)NC(=O)[C@H](C)NC(=O)[C@H](C)NC(=O)[C@H](CCC(N)=O)NC(=O)[C@H](CCC(=O)O)NC(=O)[C@H](CCC(=O)O)NC(=O)[C@H](CC(C)C)NC(=O)[C@H](Cc1ccc(O)cc1)NC(=O)[C@H](CO)NC(=O)[C@H](CO)NC(=O)[C@@H](NC(=O)[C@H](CC(=O)O)NC(=O)[C@H](CO)NC(=O)[C@@H](NC(=O)[C@H](Cc1ccccc1)NC(=O)[C@@H](NC(=O)CNC(=O)[C@H](CCC(=O)O)NC(=O)C(C)(C)NC(=O)[C@@H](N)Cc1c[nH]cn1)[C@@H](C)O)[C@@H](C)O)C(C)C)C(=O)N[C@@H](C)C(=O)N[C@@H](Cc1c[nH]c2ccccc12)C(=O)N[C@@H](CC(C)C)C(=O)N[C@H](C(=O)N[C@@H](CCC(N)=O)C(=O)NCC(=O)N[C@@H](CCCCNC(=O)COCCOCCNC(=O)COCCOCCNC(=O)CC[C@H](NC(=O)CCCCCCCCCCOc1ccc(C(=O)O)cc1)C(=O)O)C(=O)N[C@@H](CCCCNC(=O)COCCOCCNC(=O)COCCOCCNC(=O)CC[C@H](NC(=O)CCCCCCCCCCOc1ccc(C(=O)O)cc1)C(=O)O)C(=O)O)C(C)C [Example 7] (H-H[Aib]EGTFTSDVSSYLEEQAAREFIAWLVQGK([AEEA-AEEA-γGlu-Undecanoyl(11-OPh(4-COOH))])K([AEEA-AEEA-γGlu-Undecanoyl(11-OPh(4-COOH))])-OH; N-terminus and C-terminus assumed)	1.5 pM	143 pM	107 h	0.47 nM	–	–	–	–	–	–
CC[C@H](C)[C@H](NC(=O)[C@H](Cc1ccccc1)NC(=O)[C@H](CCC(=O)O)NC(=O)[C@H](CCCNC(=N)N)NC(=O)[C@H](C)NC(=O)[C@H](C)NC(=O)[C@H](CCC(N)=O)NC(=O)[C@H](CCC(=O)O)NC(=O)[C@H](CCC(=O)O)NC(=O)[C@H](CC(C)C)NC(=O)[C@H](Cc1ccc(O)cc1)NC(=O)[C@H](CO)NC(=O)[C@H](CO)NC(=O)[C@@H](NC(=O)[C@H](CC(=O)O)NC(=O)[C@H](CO)NC(=O)[C@@H](NC(=O)[C@H](Cc1ccccc1)NC(=O)[C@@H](NC(=O)CNC(=O)[C@H](CCC(=O)O)NC(=O)C(C)(C)NC(=O)[C@@H](N)Cc1c[nH]cn1)[C@@H](C)O)[C@@H](C)O)C(C)C)C(=O)N[C@@H](C)C(=O)N[C@@H](Cc1c[nH]c2ccccc12)C(=O)N[C@@H](CC(C)C)C(=O)N[C@H](C(=O)N[C@@H](CCCNC(=N)N)C(=O)NCC(=O)N[C@@H](CCCCNC(=O)COCCOCCNC(=O)COCCOCCNC(=O)COCCOCCNC(=O)CC[C@H](NC(=O)CCCCCCCCCCCCC(=O)O)C(=O)O)C(=O)N[C@@H](CCCCNC(=O)COCCOCCNC(=O)COCCOCCNC(=O)COCCOCCNC(=O)CC[C@H](NC(=O)CCCCCCCCCCCCC(=O)O)C(=O)O)C(=O)O)C(C)C [Example 12]	–	10 pM	80 h	–	1.2 pM	0.2 nM	–	–	–	–
CC[C@H](C)[C@H](NC(=O)[C@H](Cc1ccccc1)NC(=O)[C@H](CCC(=O)O)NC(=O)[C@H](CCCNC(=N)N)NC(=O)[C@H](C)NC(=O)[C@H](C)NC(=O)[C@H](CCC(N)=O)NC(=O)[C@H](CCC(=O)O)NC(=O)[C@H](CCC(=O)O)NC(=O)[C@H](CC(C)C)NC(=O)[C@H](Cc1ccc(O)cc1)NC(=O)[C@H](CO)NC(=O)[C@H](CO)NC(=O)[C@@H](NC(=O)[C@H](CC(=O)O)NC(=O)[C@H](CO)NC(=O)[C@@H](NC(=O)[C@H](Cc1ccccc1)NC(=O)[C@@H](NC(=O)CNC(=O)[C@H](CCC(=O)O)NC(=O)C(C)(C)NC(=O)[C@@H](N)Cc1c[nH]cn1)[C@@H](C)O)[C@@H](C)O)C(C)C)C(=O)N[C@@H](C)C(=O)N[C@@H](Cc1c[nH]c2ccccc12)C(=O)N[C@@H](CC(C)C)C(=O)N[C@H](C(=O)N[C@@H](CCCNC(=N)N)C(=O)NCC(=O)N[C@@H](CCCCNC(=O)COCCOCCNC(=O)COCCOCCNC(=O)CC[C@H](NC(=O)CCCCCCCCCCCCC(=O)O)C(=O)O)C(=O)N[C@@H](CCCCNC(=O)COCCOCCNC(=O)COCCOCCNC(=O)CC[C@H](NC(=O)CCCCCCCCCCCCC(=O)O)C(=O)O)C(=O)O)C(C)C [Example 5, N{Epsilon-36}-[2-[2-[2-[[2-[2-[2-[[(4S)-4-carboxy-4-(13-carboxytridecanoylamino)butanoyl]amino]ethoxy]ethoxy]acetyl]amino]ethoxy]ethoxy]acetyl], N{Epsilon-37}-[2-[2-[2-[[2-[2-[2-[[(4S)-4-carboxy-4-(13-carboxytridecanoylamino)butanoyl]amino]ethoxy]ethoxy]acetyl]amino]ethoxy]ethoxy]acetyl]-[Aib8,Glu22,Arg26,Arg34,Lys36,Lys37]-GLP-1-(7-37)-peptide]	–	22 pM	99 h	–	1.1 pM	0.2 nM	–	–	–	–
CC[C@H](C)[C@H](NC(=O)[C@H](Cc1ccccc1)NC(=O)[C@H](CCC(=O)O)NC(=O)[C@H](CCCNC(=N)N)NC(=O)[C@H](C)NC(=O)[C@H](C)NC(=O)[C@H](CCC(N)=O)NC(=O)[C@H](CCC(=O)O)NC(=O)[C@H](CCC(=O)O)NC(=O)[C@H](CC(C)C)NC(=O)[C@H](Cc1ccc(O)cc1)NC(=O)[C@H](CO)NC(=O)[C@H](CO)NC(=O)[C@@H](NC(=O)[C@H](CC(=O)O)NC(=O)[C@H](CO)NC(=O)[C@@H](NC(=O)[C@H](Cc1ccccc1)NC(=O)[C@@H](NC(=O)CNC(=O)[C@H](CCC(=O)O)NC(=O)C(C)(C)NC(=O)[C@@H](N)Cc1c[nH]cn1)[C@@H](C)O)[C@@H](C)O)C(C)C)C(=O)N[C@@H](C)C(=O)N[C@@H](Cc1c[nH]c2ccccc12)C(=O)N[C@@H](CC(C)C)C(=O)N[C@H](C(=O)N[C@@H](CCCNC(=N)N)C(=O)NCC(=O)N[C@@H](CCCCNC(=O)COCCOCCNC(=O)COCCOCCNC(=O)CC[C@H](NC(=O)CCCCCCCCCOc1ccc(C(=O)O)cc1)C(=O)O)C(=O)N[C@@H](CCCCNC(=O)COCCOCCNC(=O)COCCOCCNC(=O)CC[C@H](NC(=O)CCCCCCCCCOc1ccc(C(=O)O)cc1)C(=O)O)C(=O)O)C(C)C [Example 3, N{Epsilon-36}-[2-[2-[2-[[2-[2-[2-[[(4S)-4-carboxy-4-[10-(4-carboxyphenoxy)decanoylamino]butanoyl]amino]ethoxy]ethoxy]acetyl]amino]ethoxy]ethoxy]acetyl], N{Epsilon-37}-[2-[2-[2-[[2-[2-[2-[[(4S)-4-carboxy-4-[10-(4-carboxyphenoxy)decanoylamino]butanoyl]amino]ethoxy]ethoxy]acetyl]amino]ethoxy]ethoxy]acetyl]-[Aib8,Glu22,Arg26,Arg34,Lys36,Lys37]-GLP-1-(7-37)-peptide]	1.2 pM	28 pM	71 h	0.19 nM	–	–	–	–	–	–
CC[C@H](C)[C@H](NC(=O)[C@H](Cc1ccccc1)NC(=O)[C@H](CCC(=O)O)NC(=O)[C@H](CCCNC(=N)N)NC(=O)[C@H](C)NC(=O)[C@H](C)NC(=O)[C@H](CCC(N)=O)NC(=O)[C@H](CCC(=O)O)NC(=O)[C@H](CCC(=O)O)NC(=O)[C@H](CC(C)C)NC(=O)[C@H](Cc1ccc(O)cc1)NC(=O)[C@H](CO)NC(=O)[C@H](CO)NC(=O)[C@@H](NC(=O)[C@H](CC(=O)O)NC(=O)[C@H](CO)NC(=O)[C@@H](NC(=O)[C@H](Cc1ccccc1)NC(=O)[C@@H](NC(=O)CNC(=O)[C@H](CCC(=O)O)NC(=O)C(C)(C)NC(=O)[C@@H](N)Cc1c[nH]cn1)[C@@H](C)O)[C@@H](C)O)C(C)C)C(=O)N[C@@H](C)C(=O)N[C@@H](Cc1c[nH]c2ccccc12)C(=O)N[C@@H](CC(C)C)C(=O)N[C@H](C(=O)N[C@@H](CCCNC(=N)N)C(=O)NCC(=O)N[C@@H](CCCCNC(=O)COCCOCCNC(=O)CC[C@H](NC(=O)CC[C@H](NC(=O)CCCCCCCCCCCCC(=O)O)C(=O)O)C(=O)O)C(=O)N[C@@H](CCCCNC(=O)COCCOCCNC(=O)CC[C@H](NC(=O)CC[C@H](NC(=O)CCCCCCCCCCCCC(=O)O)C(=O)O)C(=O)O)C(=O)O)C(C)C [Example 13, N{Epsilon-36}-[2-[2-[2-[[(4S)-4-carboxy-4-[[(4S)-4-carboxy-4-(13-carboxytridecanoylamino)butanoyl]amino]butanoyl]amino]ethoxy]ethoxy]acetyl], N{Epsilon-37}-[2-[2-[2-[[(4S)-4-carboxy-4-[[(4S)-4-carboxy-4-(13-carboxytridecanoylamino)butanoyl]amino]butanoyl]amino]ethoxy]ethoxy]acetyl]-[Aib8,Glu22,Arg26,Arg34,Lys36,Lys37]-GLP-1-(7-37)-peptide]	–	18 pM	98 h	–	1.3 pM	0.47 nM	–	–	–	–
H[Aib]EGTFTSDVSSYLEEQAAREFIEWLVRGK([AEEA-AEEA-γGlu-Decanoyl(10-O(3-COOH-Ph))])K([AEEA-AEEA-γGlu-Decanoyl(10-O(3-COOH-Ph))]) [GLP-1 derivative of Example 27]	–	–	–	–	–	–	13 pM	105 pM	478 nM	0.66 nM
H[Aib]EGTFTSDVSSYLEEQAAREFIAWLVRGK([AEEA-AEEA-γGlu-γGlu-C14 diacid])K([AEEA-AEEA-γGlu-γGlu-C14 diacid]) [GLP-1 derivative of Example 21]	–	–	–	–	–	–	5.6 pM	13 pM	89 nM	0.42 nM
H[Aib]EGTFTSDVSSYLEEQAAREFIAWLVRGK([AEEA-AEEA-AEEA-AEEA-γGlu-C14 diacid])K([AEEA-AEEA-AEEA-AEEA-γGlu-C14 diacid]) [GLP-1 derivative of Example 20]	–	–	–	–	–	–	2.7 pM	5.8 pM	–	0.81 nM
